Results: patent US8992982B2, “Formulation of indomethacin” (Iceutica Pty Ltd., priority 2009, dated 2015)

How the values were obtained:
[1] = test system: pain after surgical removal of impacted third molars; experiment: Phase 2 dental pain study: VAS pain intensity (VAS score, VASPID, VASSPID); assay type: in vivo, human; set-up: VASPID, Median / VASPID, Mean / VAS pain intensity score, Median / VASSPID-8, Median: scale not given here
Procedure: On Day 1, eligible subjects underwent extraction of 2 or more third molars, at least 1 of which had to be a fully or partially bone-impacted mandibular molar. If only 2 molars were removed, then they had to be ipsilateral.
Subjects assessed their baseline pain intensity (VAS) before receiving study drug (predose, Time 0) and their pain intensity (VAS) and pain relief (5-point categorical scale) at 15, 30, and 45 minutes and 1, 1.5, 2, 3, 4, 5, 6, 7, and 8 hours after Time 0 and immediately before the first dose of rescue medication. The 2-stopwatch method was used to record the time to perceptible and time to meaningful pain relief, respectively. Acetaminophen (1000 mg) was permitted as the initial rescue medication. Subjects were encouraged to wait at least 60 minutes after receiving study drug before taking rescue medication. […] Other restrictions included the following: no alcohol use from 24 hours before surgery until discharge on Day 1; nothing by mouth (NPO) from midnight before surgery until 1 hour after surgery; clear liquids only from 1 hour after surgery until 1 hour after dosing; and advancement of diet 1 hour after dosing according to standard practice.
The secondary efficacy endpoints were as follows: • TOTPAR over 0 to 4 hours (TOTPAR-4) after Time 0 • Visual Analogue Scale (VAS) pain intensity difference (VASPID) at each scheduled time point after Time 0 • Time to onset of analgesia (measured as time to perceptible pain relief confirmed by meaningful pain relief) • VAS pain intensity score at each scheduled time point • VAS summed pain intensity difference (VASSPID) over 0 to 4 hours (VASSPID-4) and over 0 to 8 hours (VASSPID-8) after Time 0 • Pain relief score at each scheduled time point after Time 0 • Peak pain relief • Time to peak pain relief • Time to first perceptible pain relief • Time to meaningful pain relief • Proportion of subjects using rescue medication • Time to first use of rescue medication (duration of analgesia) • Patient's global evaluation of study drug Safety:
For continuous secondary endpoints such as pain intensity score, VASPID at each scheduled time point, peak pain intensity, TOTPAR-4, VASSPID-4, and VASSPID-8, descriptive statistics (e.g., mean, standard error, median, minimum, and maximum) were provided for each treatment regimen. Nominal P values from 2-sample tests comparing the placebo group with other treatment groups were provided, but no formal statistical inferences were drawn on the basis of these tests.
For pain intensity, missing observations were imputed using a baseline-observation-carried-forward (BOCF) approach for subjects who withdrew from the study due to lack of efficacy or an AE/intolerance to study drug. The BOCF imputation was applied in place of all scheduled assessments after the time of early termination due to lack of efficacy or an AE/intolerance to study drug using the baseline observation taken before Time 0.
For subjects who withdrew from the study for reasons other than lack of efficacy or an AE/intolerance to study drug, missing observations for pain intensity and pain relief were imputed using a last-observation-carried-forward (LOCF) approach. The LOCF imputation was applied in place of all scheduled assessments after the time of early termination for reasons other than lack of efficacy or an AE/intolerance to study drug.
For subjects who took any dose of rescue medication, subsequent measures after the first dose of rescue mediation were disregarded. Instead, all scheduled assessments after the first dose of rescue medication were imputed using BOCF and the baseline observation taken before Time 0. (Baseline value for pain relief was 0.)

[2] = Phase 2 dental pain study: safety (TEAEs, vital signs); assay type: in vivo, human; conditions: Safety population
Procedure: Efficacy was assessed during the 8 hours after Time 0. Safety was assessed by the incidence of treatment-emergent AEs (TEAEs) and changes in vital sign measurements.
The safety endpoints were the incidence of TEAEs and changes in vital sign measurements.
Protocol-specified safety data were provided in by-subject listings. The Medical Dictionary for Regulatory Activities (MedDRA) (version 11.0) was used to classify all AEs with respect to system organ class and preferred term. Adverse event summaries included only TEAEs, which were summarized by incidence, severity, and relationship to study drug for each treatment group. The Cochran-Mantel-Haenszel test was used to compare the rates of occurrence between the placebo and Indomethacin Nanoformulation Capsule groups for all TEAEs. A list of AEs leading to study discontinuation, along with the summaries described above, was also provided.
Vital sign measurements were summarized using descriptive statistics (mean, standard deviation [SD], median, minimum, and maximum) at each scheduled time point for each treatment group. Changes from Baseline for vital signs were calculated for each subject and summarized for each treatment group at each scheduled time point after Baseline. No formal statistical tests were performed.

[3] = 15 minutes after Time 0, ITT, 100-mm VAS

Cc1ccc(-c2cc(C(F)(F)F)nn2-c2ccc(S(N)(=O)=O)cc2)cc1 [Celecoxib]
VASSPID-4, Mean (SD) ([1]; 0 to 4 hours after Time 0, ITT): 127.971 (99.1934) | VASSPID-4, Median ([1]; 0 to 4 hours after Time 0, ITT): 140.250 | VASSPID-8, Mean (SD) ([1]; 0 to 8 hours after Time 0, ITT): 284.265 (229.4447) | VASSPID-8, Median ([1]; 0 to 8 hours after Time 0, ITT): 346.500 | VAS pain intensity score, Median ([1]; 15 minutes after Time 0, ITT): 71.00 | VASPID, Median ([1]; 15 minutes after Time 0, ITT): 1.00 | VAS pain intensity score, Mean [1, 3]: 70.55 | VASPID, Mean [1, 3]: 3.35 | VAS pain intensity score, Mean ([1]; 30 minutes after Time 0, ITT): 67.25 | VAS pain intensity score, Median ([1]; 30 minutes after Time 0, ITT): 66.00 | VASPID, Mean ([1]; 30 minutes after Time 0, ITT): 6.65 | VASPID, Median ([1]; 30 minutes after Time 0, ITT): 3.00 | VAS pain intensity score, Mean ([1]; 45 minutes after Time 0, ITT): 57.47 | VAS pain intensity score, Median ([1]; 45 minutes after Time 0, ITT): 61.00 | VASPID, Mean ([1]; 45 minutes after Time 0, ITT): 16.43 | VASPID, Median ([1]; 45 minutes after Time 0, ITT): 10.00 | VAS pain intensity score, Mean ([1]; 1 hour after Time 0, ITT): 49.08 | VAS pain intensity score, Median ([1]; 1 hour after Time 0, ITT): 50.00 | VASPID, Mean ([1]; 1 hour after Time 0, ITT): 24.82 | VASPID, Median ([1]; 1 hour after Time 0, ITT): 17.00 | VAS pain intensity score, Mean ([1]; 2 hours after Time 0, ITT): 36.65 | VAS pain intensity score, Median ([1]; 2 hours after Time 0, ITT): 36.00 | VASPID, Mean ([1]; 2 hours after Time 0, ITT): 37.25 | VASPID, Median ([1]; 2 hours after Time 0, ITT): 32.00 | VAS pain intensity score, Mean ([1]; 3 hours after Time 0, ITT): 32.29 | VAS pain intensity score, Median ([1]; 3 hours after Time 0, ITT): 28.00 | VASPID, Mean ([1]; 3 hours after Time 0, ITT): 41.61 | VASPID, Median ([1]; 3 hours after Time 0, ITT): 50.00 | VAS pain intensity score, Mean ([1]; 4 hours after Time 0, ITT): 33.94 | VAS pain intensity score, Median ([1]; 4 hours after Time 0, ITT): 25.00 | VASPID, Mean ([1]; 4 hours after Time 0, ITT): 39.96 | VASPID, Median ([1]; 4 hours after Time 0, ITT): 46.00 | VAS pain intensity score, Mean ([1]; 5 hours after Time 0, ITT): 33.69 | VAS pain intensity score, Median ([1]; 5 hours after Time 0, ITT): 22.00 | VASPID, Mean ([1]; 5 hours after Time 0, ITT): 40.22 | VASPID, Median ([1]; 5 hours after Time 0, ITT): 50.00 | VAS pain intensity score, Mean ([1]; 6 hours after Time 0, ITT): 35.06 | VAS pain intensity score, Median ([1]; 6 hours after Time 0, ITT): 20.00 | VASPID, Mean ([1]; 6 hours after Time 0, ITT): 38.84 | VASPID, Median ([1]; 6 hours after Time 0, ITT): 50.00 | VAS pain intensity score, Mean ([1]; 7 hours after Time 0, ITT): 35.55 | VAS pain intensity score, Median ([1]; 7 hours after Time 0, ITT): 21.00 | VASPID, Mean ([1]; 7 hours after Time 0, ITT): 38.35 | VASPID, Median ([1]; 7 hours after Time 0, ITT): 44.00 | VAS pain intensity score, Mean ([1]; 8 hours after Time 0, ITT): 35.02 | VAS pain intensity score, Median ([1]; 8 hours after Time 0, ITT): 22.0 | VASPID, Mean ([1]; 8 hours after Time 0, ITT): 38.88 | VASPID, Median ([1]; 8 hours after Time 0, ITT): 49.00 | VAS pain intensity score, Mean ([1]; […] after Time 0, ITT): 43.98 | VAS pain intensity score, Median ([1]; […] after Time 0, ITT): 48.00 | VASPID, Mean ([1]; […] after Time 0, ITT): 29.92 | VASPID, Median ([1]; […] after Time 0, ITT): 26.00 | Time point from which mean VASPID was statistically significantly greater and mean VAS pain intensity less than placebo ([1]; onward after Time 0): ≥ 30 min | Subjects with ≧1 severe TEAE [2]: (5.9) % | Subjects with ≧1 treatment-related TEAE [2]: (2.0) % | Subjects who died ([2]; n): 0 | Subjects who discontinued due to a TEAE ([2]; n): 0 | Subjects with ≧1 SAE ([2]; n): 0
